The term inhibition denotes the relative decrease from the control value, in per cent.

The test system of assay [1] is Avena sativa. Kind of assay: Phytotoxicity against Avena sativa assessed as inhibition of radicle length at 400 ppm. It counts as functional.
Assay [2] relates to Lactuca sativa. Kind of assay: Phytotoxicity against Lactuca sativa assessed as inhibition in radicle length at 400 ppm. In kind it is functional.

Regarding `CC1=C(C)C(=O)O[C@]2(C1)O[C@@]1(O)CC3C(CC=C4CC=CC(=O)[C@@]43C)C3CC[C@@](O)([C@@H]2C)[C@]31C` (some centres not stated) [JABOROSALACTONE 43], the inhibition at 400 ppm in assay [1] came out at 4%; in assay [2] it was 32%.

The values are drawn from ChEMBL document CHEMBL1141270, “Withanolides from Jaborosa kurtzii” (2007).
